Experimental findings from patent US20100048575A1, “NOVEL TETRACYCLIC INHIBITORS OF CYSTEINE PROTEASES, THE PHARMACEUTICAL COMPOSITIONS THEREOF AND THEIR THERAPEUTIC APPLICATIONS” (priority 2006, published 2010) are described below.

For this experiment, the target named is T1, Uch-L3 (Homo sapiens, UniProt P15374).
T1 sequence (P15374 1-230): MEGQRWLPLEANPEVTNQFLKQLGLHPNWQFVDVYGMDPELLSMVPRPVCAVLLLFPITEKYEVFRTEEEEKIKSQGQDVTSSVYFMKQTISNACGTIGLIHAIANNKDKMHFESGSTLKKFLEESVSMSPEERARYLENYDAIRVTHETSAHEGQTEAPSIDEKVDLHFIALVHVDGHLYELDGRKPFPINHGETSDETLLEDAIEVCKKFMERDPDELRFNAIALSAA
Put plainly: UCH-L3 activity assay (Ub-AMC). The format is biochemical. The following applies: 400 nM Ub-AMC, 13 pM enzyme, 30 min pre-incubation, 60 min at 37° C., sigmoidal fit; read-out: Uch-L3 (inhibition of cysteine protease activity). As for the experimental part:
Uch-L3 was diluted in USP buffer (50 mM Tris HCl; 0.5 mM EDTA; 5 mM DTT; 0.01% Triton X-100; Bovine Serum Albumin 0.05 mg.ml^−1 pH7.6). Compounds stocks (100 mM) were stored at −20° C. in DMSO. Compounds were tested at the following final concentrations: 100 μM; 33.3 μM; 11.1 μM; 3.7 μM; 1.23 μM; 412 nM; 137 nM; 45.7 nM, 15.2 nM; 5 nM.
Reactions were performed as duplicates in Black LJL 96 well plates (HE microplates; Molecular Devices; 20 μl final reaction volume). The substrate concentration for Uch-L3 was 400 nM Ub-AMC (Boston Biochem). The concentration of the enzyme (Uch-L3) in specificity assays was 13 pM. The concentrations were determined in order to perform specificity assays under initial velocities at fixed substrate concentration. Compounds were pre-incubated with enzymes for 30 minutes at 25° C. Reactions were initiated by addition of substrate to the plates containing the enzymes (+/−compounds) diluted in assay buffer.
Reactions were incubated for 60 minutes at 37° C. Reactions were stopped by adding acetic acid (100 mM final). Readings were performed on a Pherastar Fluorescent Reader (BMG). δ Emission 380 nm; 6 Excitation=460 nm. Data (mean values +/−standard deviation) were analyzed as % of control (no compound) and plotted as percentage versus the Log of the compound concentration using GraphPad (Prism). Data were fitted to a sigmoidal model (variable slope).

With `C=CCON=C1c2ccccc2-c2nn3c(C)nnc3nc21` (mixture of isomers) [5b, 3-Methyl-1,2,3a,4,10-pentaaza-cyclopenta[b]fluoren-9-one O-allyl-oxime], the IC50 came to 272 nM.
On to `ON=C1c2ccccc2-c2nn3nnnc3nc21` (mixture of isomers) [compound 7, 1,2,3,3a,4,10-hexaaza-cyclopenta[b]fluoren-9-one oxime], for which the IC50 amounted to 57 nM.
Under `c1ccc(OCCCON=C2c3ccccc3-c3nn4nnnc4nc32)cc1` (mixture of isomers) [8c, 1,2,3,3a,4,10-Hexaaza-cyclopenta[b]fluoren-9-one O-(3-phenoxy-propyl)-oxime] stands 121 nM.
Under `C=CCON=C1c2ccccc2-c2nn3c(CC)nnc3nc21` (mixture of isomers) [10f, 3-Ethyl-1,2,3a,4,10-pentaaza-cyclopenta[b]fluoren-9-one O-allyl-oxime] stands 235 nM; under `C=CCON=C1c2ccccc2-c2nn3nnnc3nc21` (mixture of isomers) [compound 6, 1,2,3,3a,4,10-hexaaza-cyclopenta[b]fluoren-9-one O-allyl-oxime], 32 nM; under `C=CCON=C1c2ccccc2-c2nn3c(CCCC)nnc3nc21` (mixture of isomers) [5d, 3-Butyl-1,2,3a,4,10-pentaaza-cyclopenta[b]fluoren-9-one O-allyl-oxime], 250 nM.
On to `CCCCCCCCCCON=C1c2ccccc2-c2nn3nnnc3nc21` (mixture of isomers) [8a, 1,2,3,3a, 4,10-Hexaaza-cyclopenta[b]fluoren-9-one O-decyl-oxime], for which the IC50 came out at 2000 nM.
As for `CON=C1c2ccccc2-c2nn3c(C)nnc3nc21` (mixture of isomers) [5a, 3-Methyl-1,2,3a,4,10-pentaaza-cyclopenta[b]fluoren-9-one O-methyl-oxime], the IC50 was determined as 410 nM.
Regarding `COCCON=C1c2ccccc2-c2nn3nnnc3nc21` (mixture of isomers) [8b, 1,2,3,3a, 4,10-Hexaaza-cyclopenta[b]fluoren-9-one O-(2-methoxy-ethyl)-oxime], the IC50 is 48 nM.
